What was measured:
[1] = tested on: MCF7 (breast cancer cells); test: MTT assay for anticancer activity (in vitro cytotoxicity), MCF7; type: cell-based, human; details: for IC50: MTT, incubated 24 h with compound, read-out: IC50 ± SEM, MCF7 (concentration causing 50% reduction in cell viability)
Experimental: (§1) Cell Cultures: Human Cervical cancer HeLa and Brest cancer cell lines MCF-7 were grown in Dulbecco's modified Eagle's medium (DMEM) supplemented with 10% Fetal Bovine Serum (FBS), and 1% penicillin (10,000 units), streptomycin (10 mg), in 74 cm2 flask and incubated until 80% confluences obtained in humidified environment of, 5% CO2, 95% air, 37° C.
(§2) Complexes 1-7 and cisplatin (positive control) at 0.195 μM, 0.39 μM, 0.781 μM, 1.56 μM, 3.125 μM, 6.25 μM, 12.5 μM, 25 μM, and 50 μM concentrations were prepared in DMEM. Cancer cells were seeded and maintained in quadruplicate in a 96-well tissue culture plate at 5×10^4 cells per well in 200 μl of same medium. The cancer cells were incubated 24 hours before the treatment. All compounds were dissolved in 50% DMSO. Therefore, DMSO was used as a negative control. The final DMSO concentration, in each well, was less than 0.1%. The cancer cells were treated with the synthesized compounds 1-8 along with the cisplatin and the resultant cultures were incubated for 24 h. The medium of wells was discarded and 100 μL DMEM containing MTT (3-(4,5-dimethylthiazol-2-yl)-2,5-diphenyltetrazolium bromide) (5 mg/mL) was added to the wells and incubated in a CO2 incubator at 37° C. in the dark for 4 hrs. After incubation, a purple colored formazan (artificial chromogenic dye, a product of the reduction of water insoluble tetrazolium salts e.g., MTT by dehydrogenases and reductases) in the cells is produced and appeared as dark crystals in the bottom of the wells. The medium of culture was discarded from each well carefully to avoid disruption of the monolayer. 100 μL of isopropanol was added in each well. The solution was thoroughly mixed in the wells to dissolve the formazan crystals which ultimately results into a purple solution. The absorbance of the 96-well plate was measured at 570 nm with Mithras2LB943 against reagent blank. All data presented are mean±standard deviation.
(§3) To examine the possible anticancer effect of cisplatin and the prepared complexes, two human tumor cell lines, HeLa (cervical cancer cells) and MCF7 (breast cancer cells) were used. The results of in vitro cytotoxic activity are expressed as IC50 (concentration causing 50% reduction in cell viability) and are presented in Table 5.

[2] = tested on: HeLa (cervical cancer cells); test: MTT assay for anticancer activity (in vitro cytotoxicity), HeLa; type: cell-based, human; details: for IC50: MTT, incubated 24 h with compound, read-out: IC50 ± SEM, HeLa (concentration causing 50% reduction in cell viability)
Experimental: as §1, §2, §3

Molecule `NC(N)=[Se][Pt]([Cl])([Cl])[Se]=C(N)N` [(1), Pt(SeU)2Cl2] has an IC50 [1] of 11.11 ± 0.05 µM and an IC50 [2] of 19.78 ± 0.13 µM.
`[Cl][Pt]([Cl])(=[Se]=C1NCCN1)=[Se]=C1NCCN1` [(2), Pt(ImSe)2Cl2] was tested, and the “activity against MCF7 cells, compared among the complexes and with cisplatin” value ([1]; in words) was “most active”.
For `CCN1CCNC1=[Se][Pt]([Cl])([Cl])[Se]=C1NCCN1CC` [(3), Pt(EtImSe)2Cl2], the IC50 [1] was 8.59 ± 0.07 µM and the IC50 [2] was 17.73 ± 0.14 µM.
Molecule `CCCN1CCNC1=[Se][Pt]([Cl])([Cl])[Se]=C1NCCN1CCC` [(4), Pt(PrImSe)2Cl2] has an IC50 [1] of 18.64 ± 0.03 µM and an IC50 [2] of 12.9 ± 0.16 µM.
Work on `CC(C)N1CCNC1=[Se][Pt]([Cl])([Cl])[Se]=C1NCCN1C(C)C` [(5), Pt(i-PrImSe)2Cl2] yielded an IC50 [1] of 8.3 ± 0.06 µM and an IC50 [2] of 14 ± 0.16 µM.
In the case of `[Cl][Pt]([Cl])([Se]=C1NCCCN1)[Se]=C1NCCCN1` [(6), Pt(DiazSe)2Cl2], the IC50 [1] is reported as 12.27 ± 0.01 µM, the IC50 [2] is reported as 11.3 ± 0.2 µM and the “antiproliferative potency in HeLa cells, compared among the complexes and with cisplatin” value ([2]; in words) is reported as “strongest antiproliferative potency”.
In the case of `[Cl][Pt]([Cl])([Se]=C1NCCCCN1)[Se]=C1NCCCCN1` [(7), Pt(DiapSe)2Cl2], the IC50 [1] is reported as 16.68 ± 0.02 µM and the IC50 [2] is reported as 11.5 ± 0.22 µM.
Molecule `N.N.[Cl][Pt][Cl]` [Cisplatin, cisplatin, reference compound] has an IC50 [1] of 8.98 ± 0.07 µM and an IC50 [2] of 21.4 ± 0.73 µM.

Source: US10358456B2, “Platinum(II) complexes with selone ligands and method of use” (KING FAHD UNIVERSITY OF PETROLEUM AND MINERALS, priority 2017, dated 2019)
